The record followed here is patent US8969516B2, “Method of hydrolysis of peptide bond” (priority 2006, dated 2015).

This data set can be described thus: MALDI-TOF screening of Ni^2+ dependent hydrolysis in a combinatorial peptide library. Format: physicochemical. To be noted: CH3CO-Gly-Ala-Thr-X-His-Z-Lys-Phe-Leu-NH2 library, Ni^2+ 2 mM, pH 8.2, 10 mM Tris, score=24/tm. Summed up: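 Sublibraries of Ac-Gly-Ala-Ser/Thr-X-His-Z-Lys-Phe-Leu-NH2, randomized at Z and fixed at X, were hydrolyzed at 1 mM total peptide with 2 mM Ni2+ in 10 mM Tris, pH 8.2, at 37 °C or 45 °C. Cleavage was scored visually in MALDI-TOF spectra at 2, 4, 6 and 8 h.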

Consider Ac-GATVHYKFL-NH2 [TVHY], for which the “hydrolysis score from MALDI-TOF screening” value (“hydrolysis score” below) reads like this: (37° C.) 0 (a score of 0 if no trace of the product of hydrolysis was seen after 8 hours of incubation); (45° C.) 0 (a score of 0 if no trace of the product of hydrolysis was seen after 8 hours of incubation).

On to Ac-GATWHAKFL-NH2 [TWHA], for which the “hydrolysis score” value runs as follows: (37° C.) 0 (a score of 0 if no trace of the product of hydrolysis was seen after 8 hours of incubation); (45° C.) 0 (a score of 0 if no trace of the product of hydrolysis was seen after 8 hours of incubation).

On to Ac-GATWHDKFL-NH2 [TWHD], for which the “hydrolysis score” value is, setting by setting: (37° C.) 0 (a score of 0 if no trace of the product of hydrolysis was seen after 8 hours of incubation); (45° C.) 0 (a score of 0 if no trace of the product of hydrolysis was seen after 8 hours of incubation).

As for Ac-GATWHEKFL-NH2 [TWHE], the “hydrolysis score” value was 0 (a score of 0 if no trace of the product of hydrolysis was seen after 8 hours of incubation) (37° C.) and 0 (a score of 0 if no trace of the product of hydrolysis was seen after 8 hours of incubation) (45° C.).

Turning to Ac-GATWHFKFL-NH2 [TWHF], the “hydrolysis score” value reads like this: (37° C.) 0 (a score of 0 if no trace of the product of hydrolysis was seen after 8 hours of incubation); (45° C.) 0 (a score of 0 if no trace of the product of hydrolysis was seen after 8 hours of incubation).

Regarding Ac-GATWHGKFL-NH2 [TWHG], the “hydrolysis score” value runs as follows: (37° C.) 0 (a score of 0 if no trace of the product of hydrolysis was seen after 8 hours of incubation); (45° C.) 0 (a score of 0 if no trace of the product of hydrolysis was seen after 8 hours of incubation).

Take Ac-GATWHHKFL-NH2 [TWHH]: the “hydrolysis score” value (37° C.) is recorded as 0 (a score of 0 if no trace of the product of hydrolysis was seen after 8 hours of incubation) and the “hydrolysis score” value (45° C.) is recorded as 0 (a score of 0 if no trace of the product of hydrolysis was seen after 8 hours of incubation).

As for Ac-GATWHIKFL-NH2 [TWHI], the “hydrolysis score” value (37° C.) is given as 0 (a score of 0 if no trace of the product of hydrolysis was seen after 8 hours of incubation) and the “hydrolysis score” value (45° C.) is 3 (a score of 3 for detection at 8 hours).

In the case of Ac-GATWHKKFL-NH2 [TWHK], the “hydrolysis score” value runs as follows: (37° C.) 4 (a score of 4 for detection at 6 hours); (45° C.) 4 (a score of 4 for detection at 6 hours).

As to Ac-GATWHLKFL-NH2 [TWHL], the “hydrolysis score” value was 0 (a score of 0 if no trace of the product of hydrolysis was seen after 8 hours of incubation) (37° C.) and 3 (a score of 3 for detection at 8 hours) (45° C.).

Regarding Ac-GATWHMKFL-NH2 [TWHM], the “hydrolysis score” value runs as follows: (37° C.) 0 (a score of 0 if no trace of the product of hydrolysis was seen after 8 hours of incubation); (45° C.) 3 (a score of 3 for detection at 8 hours).

On to Ac-GATWHNKFL-NH2 [TWHN], for which the “hydrolysis score” value runs as follows: (37° C.) 0 (a score of 0 if no trace of the product of hydrolysis was seen after 8 hours of incubation); (45° C.) 0 (a score of 0 if no trace of the product of hydrolysis was seen after 8 hours of incubation).

Regarding Ac-GATWHPKFL-NH2 [TWHP], the “hydrolysis score” value by setting is: (37° C.) 0 (a score of 0 if no trace of the product of hydrolysis was seen after 8 hours of incubation); (45° C.) 0 (a score of 0 if no trace of the product of hydrolysis was seen after 8 hours of incubation).

In the case of Ac-GATWHQKFL-NH2 [TWHQ], the “hydrolysis score” value is 0 (a score of 0 if no trace of the product of hydrolysis was seen after 8 hours of incubation) (37° C.) and 0 (a score of 0 if no trace of the product of hydrolysis was seen after 8 hours of incubation) (45° C.).

Ac-GATWHRKFL-NH2 [TWHR]: the “hydrolysis score” value is 3 (a score of 3 for detection at 8 hours) (37° C.) and 4 (a score of 4 for detection at 6 hours) (45° C.).

On to Ac-GATWHSKFL-NH2 [TWHS], for which the “hydrolysis score” value runs as follows: (37° C.) 0 (a score of 0 if no trace of the product of hydrolysis was seen after 8 hours of incubation); (45° C.) 0 (a score of 0 if no trace of the product of hydrolysis was seen after 8 hours of incubation).

Consider Ac-GATWHTKFL-NH2 [TWHT], for which the “hydrolysis score” value was 0 (a score of 0 if no trace of the product of hydrolysis was seen after 8 hours of incubation) (37° C.) and 0 (a score of 0 if no trace of the product of hydrolysis was seen after 8 hours of incubation) (45° C.).

Ac-GATWHVKFL-NH2 [TWHV]: the “hydrolysis score” value is, setting by setting: (37° C.) 0 (a score of 0 if no trace of the product of hydrolysis was seen after 8 hours of incubation); (45° C.) 0 (a score of 0 if no trace of the product of hydrolysis was seen after 8 hours of incubation).

Take Ac-GATWHWKFL-NH2 [TWHW]: the “hydrolysis score” value is reported as 3 (a score of 3 for detection at 8 hours) (37° C.) and 4 (a score of 4 for detection at 6 hours) (45° C.).

For Ac-GATYHAKFL-NH2 [TYHA], the “hydrolysis score” value is 0 (a score of 0 if no trace of the product of hydrolysis was seen after 8 hours of incubation) (37° C.) and 0 (a score of 0 if no trace of the product of hydrolysis was seen after 8 hours of incubation) (45° C.).

In the case of Ac-GATYHDKFL-NH2 [TYHD], the “hydrolysis score” value is listed as 0 (a score of 0 if no trace of the product of hydrolysis was seen after 8 hours of incubation) (37° C.) and 0 (a score of 0 if no trace of the product of hydrolysis was seen after 8 hours of incubation) (45° C.).

Ac-GATYHEKFL-NH2 [TYHE]: the “hydrolysis score” value (37° C.) was 0 (a score of 0 if no trace of the product of hydrolysis was seen after 8 hours of incubation) and the “hydrolysis score” value (45° C.) is on record as 0 (a score of 0 if no trace of the product of hydrolysis was seen after 8 hours of incubation).

Ac-GATYHGKFL-NH2 [TYHG]: the “hydrolysis score” value is, setting by setting: (37° C.) 0 (a score of 0 if no trace of the product of hydrolysis was seen after 8 hours of incubation); (45° C.) 0 (a score of 0 if no trace of the product of hydrolysis was seen after 8 hours of incubation).

In the case of Ac-GATYHHKFL-NH2 [TYHH], the “hydrolysis score” value was 0 (a score of 0 if no trace of the product of hydrolysis was seen after 8 hours of incubation) (37° C.) and 0 (a score of 0 if no trace of the product of hydrolysis was seen after 8 hours of incubation) (45° C.).

Turning to Ac-GATYHIKFL-NH2 [TYHI], the “hydrolysis score” value runs as follows: (37° C.) 0 (a score of 0 if no trace of the product of hydrolysis was seen after 8 hours of incubation); (45° C.) 0 (a score of 0 if no trace of the product of hydrolysis was seen after 8 hours of incubation).

As to Ac-GATYHKKFL-NH2 [TYHK], the “hydrolysis score” value (37° C.) is on record as 3 (a score of 3 for detection at 8 hours) and the “hydrolysis score” value (45° C.) is 4 (a score of 4 for detection at 6 hours).

Consider Ac-GATYHLKFL-NH2 [TYHL], for which the “hydrolysis score” value is, setting by setting: (37° C.) 0 (a score of 0 if no trace of the product of hydrolysis was seen after 8 hours of incubation); (45° C.) 0 (a score of 0 if no trace of the product of hydrolysis was seen after 8 hours of incubation).

Turning to Ac-GATYHMKFL-NH2 [TYHM], the “hydrolysis score” value runs as follows: (37° C.) 0 (a score of 0 if no trace of the product of hydrolysis was seen after 8 hours of incubation); (45° C.) 0 (a score of 0 if no trace of the product of hydrolysis was seen after 8 hours of incubation).

In the case of Ac-GATYHNKFL-NH2 [TYHN], the “hydrolysis score” value is 0 (a score of 0 if no trace of the product of hydrolysis was seen after 8 hours of incubation) (37° C.) and 0 (a score of 0 if no trace of the product of hydrolysis was seen after 8 hours of incubation) (45° C.).

For Ac-GATYHPKFL-NH2 [TYHP], the “hydrolysis score” value is reported as 0 (a score of 0 if no trace of the product of hydrolysis was seen after 8 hours of incubation) (37° C.) and 0 (a score of 0 if no trace of the product of hydrolysis was seen after 8 hours of incubation) (45° C.).

Consider Ac-GATYHQKFL-NH2 [TYHQ], for which the “hydrolysis score” value is listed as 0 (a score of 0 if no trace of the product of hydrolysis was seen after 8 hours of incubation) (37° C.) and 0 (a score of 0 if no trace of the product of hydrolysis was seen after 8 hours of incubation) (45° C.).

In the case of Ac-GATYHRKFL-NH2 [TYHR], the “hydrolysis score” value (37° C.) is given as 4 (a score of 4 for detection at 6 hours) and the “hydrolysis score” value (45° C.) is listed as 4 (a score of 4 for detection at 6 hours).

Consider Ac-GATYHSKFL-NH2 [TYHS], for which the “hydrolysis score” value is, setting by setting: (37° C.) 0 (a score of 0 if no trace of the product of hydrolysis was seen after 8 hours of incubation); (45° C.) 0 (a score of 0 if no trace of the product of hydrolysis was seen after 8 hours of incubation).

Consider Ac-GATYHTKFL-NH2 [TYHT], for which the “hydrolysis score” value reads like this: (37° C.) 0 (a score of 0 if no trace of the product of hydrolysis was seen after 8 hours of incubation); (45° C.) 0 (a score of 0 if no trace of the product of hydrolysis was seen after 8 hours of incubation).

As to Ac-GATYHVKFL-NH2 [TYHV], the “hydrolysis score” value runs as follows: (37° C.) 0 (a score of 0 if no trace of the product of hydrolysis was seen after 8 hours of incubation); (45° C.) 0 (a score of 0 if no trace of the product of hydrolysis was seen after 8 hours of incubation).
